The values that follow come from patent US6719976B1, “Peptide-based immunotherapeutic agent for treating allergic diseases” (Meiji Milk Products Co., Ltd., priority 1996, dated 2004).

Holding throughout (type): cell-based, human
The subject of one experiment is HLA class II molecules. Put plainly: Identifying the HLA class II restriction molecules (transfected mouse L-cells or haplotype-matched B cell line as antigen-presenting cells). The note with it: 2 μM peptide. The protocol: HLA class II restriction molecules can be identified using the T cell clones whose restriction molecules were identified at the HLA class II locus level and, as antigen-presenting cells, mouse L-cells transfected with each type for DR and B cell line having the same haplotype for DQ or DP.
A mixture of 5×10^4 mouse L cells previously treated with mitomycin C of the B cell line coincident in haplotype; 2 μM of an overlapping peptide; 3 μg/ml of anti-DR, -DQ or -DP monoclonal antibody (manufactured by Becton-Dickinson Inc.); and 2×10^4 cells of the T cell clone was incubated for 2 days in RPMI-1640 medium supplemented with 0.2 ml of 15% serum on a 96-well micro culture plate. After 0.5 μCi [^3H] thymidine was added to the medium, incubation was continued for a further 18 hours. After the cells were harvested on a glass filter using a cell harvester, the level of [^3H] thymidine taken up into the cells was determined using a liquid scintillation counter.

The subject of experiment [1] is T cell clones that specifically recognize Cry j 1 or Cry j 2. Description: Identifying T cell epitope peptide recognized by T cell clone. The note with it: 2 μM overlapping peptide; clones from patients. The source says: Two patients, Patient B (PB) and Patient J (PJ), who recognize Peptide Nos. 43 and 22 showing a high positivity index in Cry j 1 and three patients, who recognize Peptide Nos. 14, 38, 48, and 69 showing a high positivity index in Cry j 2 were selected from the eighteen patients with cedar pollinosis. Peripheral lymphocytes from these patients with cedar pollinosis were stimulated by Cry j 1 or Cry j 2 to establish T cell clones capable of recognizing Cry j 1 or Cry j 2. The types of HLA class I and class II molecules of the four patients are shown below.
Thirty-five T cell clones in total that specifically recognize Cry j 1 were established from the peripheral lymphocytes derived from PB, and 14 similar T cell clones from PJ. Likewise, 31 T cell clones, 10 T cell clones, and 17 T cell clones in total that specifically recognize Cry j 2 were established from the peripheral lymphocytes derived from PB, PC and PR, respectively. […] A mixture of 5×10^4 cells of the autologous B cell line previously treated with mitomycin C, 2 μM of an overlapping peptide, and 2×10^4 cells of the T cell clone was incubated for 2 days in RPMI-1640 medium supplemented with 0.2 ml of 15% serum on a 96-well micro culture plate. […] After the cells were harvested on a glass filter using a cell harvester, the level of [^3H] thymidine taken up into the cells was determined using a liquid scintillation counter. […]

Experiment [2] relates to T cell lines (PJ, PR, PB) and T cell clones (PB 8-3, PB 8-2, PB 9-39). Description: Determination of core sequence of Cry j 1 peptide No. 22 with T cell lines and clones. From the text:
To determine the minimum amino acid sequence (core) of the Cry j 1 peptide No. 22 (p106-120) necessary for the T cell line and T cell clone proliferation response, one amino acid residue each was deleted from the N and C terminals of this peptide as shown in FIG. 15 to prepare eleven peptides, i.e., p107-120 (p22-2), P108-120 (p22-3), p109-120 (p22-4), p110-120 (p22-5), p111-120 (p22-6), p106-119 (p22-7), p106-118 (p22-8), p106-117 (p22-9), p106-116 (p22-10), and p106-115 (p22-11) using a peptide synthesizer (PSSM-8, manufactured by Shimadzu Seisakusho Ltd.). The T cell lines (PJ, PR, PB) derived from three patients with cedar pollinosis and which react with Cry j 1 Peptide No. 22, p106-120, and the T cell clones (PB 8-3, PB 8-2, PB 9-39) from one of the patients were examined for the reactivity with these 11 peptides in the same manner as in Examples 1 and 2. […] The results reveal that the p106-120 core sequence consists of nine residues of “FIKRVSNVI”(SEQ ID NO. 7) (the nine residues are designated as Cry j 1 #22 core).

The test system of experiment [3] is Cha o 1-specific T cell line. Put plainly: Reactivity of Cha o 1-specific T cell line. The note with it: from patients with hinoki pollinosis. From the text: (§1) Two peptides (Cha o 1 #8-Cry j 1 #22 core, Cha o 1 #32-Cry j 1 #22 core) were synthesized by joining Peptide No. 8 (p71-90: […] SEQ ID NO. 11) which is a T cell epitope of hinoki pollen allergen Cha o 1 (Japanese Patent Application N. Hei. 8-15327), or Peptide No. 32 ([…]: […] SEQ ID NO. 12) to Cry j 1 #22 core sequence “FIKRVSNVI”(SEQ ID NO. 7) obtained in Example 14 using a peptide synthesizer (PSSM-8, Shimadzu Seisakusho Ltd.). An RR sequence was inserted between Cha o 1 #8 and Cry j 1 #22 core and between Cha o 1 #32 and Cry j 1 #22 core, that is, Cha o 1 #8-Cry j 1 #22 core (SEQ NO: 4) and Cha o 1 #32-Cry j 1 #22 core (SEQ NO: 5).
(§2) A Cry j 1-specific T cell line and a Cha o 1-specific T cell line were prepared from the patients with cedar pollinosis and hinoki pollinosis, respectively. […] However, these T cell lines all react with the multi-epitope peptide of SEQ NO: 4 and with the multi-epitope peptide of SEQ NO: 5.

Experiment [4] concerns Cry j 1-specific T cell line. Put plainly: Reactivity of Cry j 1-specific T cell line. The note with it: from patients with cedar pollinosis.
Excerpt: as §1, §2

For experiment [5], the system named is T cell line of each patient specifically recognizing Cry j 1 or Cry j 2. Put plainly: T cell line proliferation response to overlapping peptides ([3H] thymidine uptake). The note with it: mean stimulation index multiplied by frequency of appearance; T cell lines of 18 patients; 2 μM peptide. The protocol: Peripheral lymphocytes from 18 patients with cedar pollinosis were stimulated by cedar pollen allergen Cry j 1 or Cry j 2to establish the T cell line of each patient capable of specifically recognizing the respective allergen.
A mixture of 5×10^4 cells of the autologous B cell line treated with mitomycin C, 2 μM of an overlapping peptide, and 2×10^4 cells of the T cell line was incubated for 2 days in RPMI-1640 medium supplemented with 0.2 ml of 15% serum on a 96-well culture plate. After 0.5 μCi [^3H] thymidine was added to the medium, incubation was continued for a further 18 hours. After the cells were harvested on a glass filter using a cell harvester, the level of [^3H] thymidine taken up into the cells was determined with a liquid scintillation counter. If the stimulation index is 2 or more, we consider that the added peptide is recognized as an antigenic peptide. The stimulation index means a value obtained by dividing the level of [^3H] thymidine taken up into the cells when the peptide was added by the level of [^3H] thymidine taken up into the cells when no peptide was added.
The HLA class II type is considered to vary in every patient. It is thus assumed that a T cell epitope to be recognized would vary depending on the HLA class II type. For this reason, the antigenic peptide that the patients recognized was mapped for the individual patient. […] On the allergen molecule, there are both regions that can be readily recognized and regions that can hardly be recognized, as a T cell epitope, depending on individuals. Moreover, since the proliferation rate of T cells varies depending on a T cell epitope, the epitope map alone makes it difficult to determine what antigenic peptide should be chosen to design the multi-epitope peptide.

A further experiment concerns T cell clones. Put plainly: Recognizing the T cell epitopes in the multi-epitope peptide C.A.#4 by T cell clones. The note with it: clones PB8-3, PB8-34, PB4-22, PB14-5, PB14-3; C.A.#4 10 μg/ml. As to the method:
The antigenic peptide constituting the multi-epitope peptide C.A.#4 obtained in Example 6 was examined to determine if the antigenic peptide actually functions as a T cell epitope.
On a 96-well micro culture plate, a mixture of 5×10^4 cells of the autologous B cell line previously treated with mitomycin C and 2×10^4 cells of the T cell clone was incubated for 2 days in 0.2 ml 15% serum-supplemented RPMI-1640 medium, together with, as an antigen, either 50 μg/ml of Cry j 1 and 2 μg/ml of Cry j 2, each antigenic peptide constituting the multi-epitope peptide C.A.#4 or 10 μg/ml C.A.#4 multi-epitope peptide produced by gene expression. After 0.5 μCi [^3H] thymidine was added to the medium, incubation was continued for a further 16 hours. After the cells were harvested on a glass filter using a cell harvester, the level of [^3H] thymidine taken up into the cells was determined using a liquid scintillation counter.

“Cry j 1 Peptide No. 22: Cry j 1 overlapping peptide No. 22, p106-120 (PCVFIKRVSNVIIHG; Figure 15, p22-1.; listed as Cryptomeria japonica)”: the peptide-presenting restriction molecule entry in the experiment on HLA class II molecules was “DRB5*0101”. For the same substance, in experiment [1], the “recognition of peptide by allergen-specific T cell clones” value is given as “recognized”. Also, the proliferation response entry in experiment [2] (one T cell line and T cell clone) is listed as “did not show any proliferation response”; in experiment [2] (two T cell lines (PJ, PB) and two T cell clones (PB 8-2, PB 9-39)) it was “proliferated”. The “reactivity of Cha o 1-specific T cell line” value in experiment [3] is “does not react with”. Further, the “reactivity of Cry j 1-specific T cell line” value in experiment [4] is “reacts with”. In experiment [5], this substance showed a positivity index of 578. For the same substance, the “proliferation response of the T cell clones recognizing the respective epitope” value in the experiment with T cell clones was “react well”.
As to “KSMKVTVAFNQFGPN [Cry j 1 Peptide No. 43]”, the peptide-presenting restriction molecule result in the experiment on HLA class II molecules is given as “DPA1*0101-DPB1*0501”. Besides, in experiment [1], the “recognition of peptide by allergen-specific T cell clones” value is recorded as “recognized”. This substance gave a positivity index in experiment [5] of 679. Moreover, in the experiment with T cell clones, the “proliferation response of the T cell clones recognizing the respective epitope” value is on record as “react well”.
